This is an account of results in patent US9695179B2, “Methods and compositions for inhibition of bromodomain-containing proteins” (CONVERGENE LLC, priority 2013, dated 2017).

What is called inhibition is the share of the control response that was lost under treatment. The term IC50 denotes the midpoint of a concentration-inhibition curve. One may read the % inhibition as the share of the control response that was lost under treatment.

One experiment concerns the target BRD4-BD1-BD2 (Homo sapiens (Human), UniProt O60885). Nature of the experiment: AlphaScreening assay, recombinant BRD4-BD1-BD2 and BET Ligand. It is filed as binding. As to conditions: 2.5 nM BRD4-BD1-BD2, BET Ligand. As to the method: Assays were performed by AlphaScreening technology using a recombinant BRD4-BD1-BD2 and BET Ligand. The AlphaScreening signal from the assay was correlated with the amount of BET Ligand binding to the bromodomain. The compounds were diluted in 50% DMSO and 1 μl of the dilution was added to a 10 μl reaction so that the final concentration of DMSO is 5% in all of reactions. All reactions were conducted at room temperature. The 9 μl reaction mixture in BRD Assay Buffer contains 2.5 nM BRD4-BD1-BD2 and the indicated amount of the inhibitor, and the reaction mixture were incubated for 30 min followed by additional 30 min incubation after the addition of 1 μl of BET Ligand (Table 2.3.1). For the negative control (blank), 1 μl of the assay buffer was added instead of the BET Ligand. After the 30 min incubation with the BET Ligand, 20 μl of BRD Detection buffer containing 10 μg/ml Glutathione acceptor beads and 10 μg/ml Streptavidin Donor beads was added and the final 30 μl mixture was incubated for 50 min in a dark room.
AlphaScreening signal was measured using EnSpire Alpha 2390 Multilabel reader (Perkin Elmer). Binding experiments were performed in duplicate at each concentration. The AlphaScreening data were analyzed using the computer software, Graphpad Prism. In the absence of the compound, the AlphaScreening signal (At) in each data set was defined as 100% activity. In the absence of the BET Ligand, the AlphaScreening signal (Ab) in each data set was defined as 0% activity. The percent activity in the presence of each compound was calculated according to the following equation: % activity=[(A−Ab)/(At−Ab)]×100, where A=the AlphaScreening signal in the presence of the compound, Ab=the AlphaScreening signal in the absence of the BET Ligand, and At=the AlphaScreening signal in the absence of the compound. The percent inhibition was calculated for certain compounds according to the following equation: % inhibition=100−% activity.

In experiment [1] the test system is MM1.S Cells (Multiple Myeloma). Kind of experiment: In vitro cell viability, MM1.S. It counts as cell-based. Particulars: Homo sapiens. As to the method:
[Worded in the source for another cell line; this cell line is reported under the same test.] (§1) MV4-11 acute myeloid leukemia cells (American Type Culture Collection, Manassas, Va.) were added to 96-well clear bottom assay plates containing RPMI-1640 medium supplemented with 10% fetal bovine serum (FBS) at approximately 30,000 cells/well and incubated for 24 hours at 37° C. with 5% CO2 and 95% humidity. Control wells containing no cells were included to measure background fluorescence signal. Test compounds were dissolved at […] and diluted two-fold in DMSO to produce a working stock of compound solutions. Aliquots of the working stock solutions were subsequently diluted 100-fold in basal RPMI-1640 medium which was then further diluted 10-fold to the assay plate containing the cells to provide 10 test concentrations ranging from 0.04 μM-20 μM. Following a 72-hour incubation period, viability of the cells was determined by the AlamarBlue® assay (Life Technologies, Carlsbad, Calif.) following the manufacturer's protocol. Prior to generation of dose response curves, the data were background subtracted using the no cell control values (mean+/−standard deviation) and fluorescence values versus Log10 concentration of test compounds were plotted using GraphPad Prism. The resulting sigmoidal curve was then fit to the graph and IC50 values were calculated using a 4 parameter (4PL) algorithm using the following equation: 4(PL)F(x)=(A−D)/(1+(x/c)^B+D, where A=lower asymptote (baseline response), D=upper asymptote (maximum response), C=drug concentration that provokes a response halfway between A and D, B=slope of the curve. The results for selected compounds are set forth in Table 7.

For experiment [2], the system named is MV4-11 acute myeloid leukemia cells. Kind of experiment: In vitro cell viability (AlamarBlue), MV4-11. It is filed as cell-based. Particulars: Homo sapiens, MV4-11 cells, 72-hour incubation, read-out: In Vitro Cell Viability (IC50) MV4-11 Cells (AML). As to the method: as §1
For orientation: Resazurin is reduced to fluorescent resorufin, in cell work by metabolically active cells.

In the case of `C/C(=C\C(=O)c1c(-c2ccccc2)c2cc(Cl)ccc2[nH]c1=O)c1c(F)cccc1Cl`, the inhibition at 10 µM on BRD4-BD1-BD2 came out at 50%.
With `Cc1noc(C)c1-c1ccc2[nH]c(=O)cc(O)c2c1`, at BRD4-BD1-BD2, the inhibition at 10 µM was determined as 51%.
For `COc1ccccc1/C=C/C(=O)c1c(-c2ccccc2)c2cc(Cl)ccc2[nH]c1=O` [Compound 5, 6-chloro-3-(3-(2-methoxyphenyl)acryloyl)-4-phenylquinolin-2(1H)-one], the IC50 is 2.53 µM in experiment [1] and 1.49 µM in experiment [2].
For `COc1ccc(/C=C/C(=O)c2c(-c3ccccc3)c3cc(Cl)ccc3[nH]c2=O)cc1OC` [Compound 6, 6-chloro-3-(3-(3,4-dimethoxyphenyl)acryloyl)-4-phenylquinolin-2(1H)-one] the same measures were 31.9 µM and 3.57 µM.
Take `COc1ccc(OC)c(/C=C/C(=O)c2c(-c3ccccc3)c3cc(Br)ccc3[nH]c2=O)c1` [Compound 10, 6-bromo-3-(3-(2,5-dimethoxyphenyl)acryloyl)-4-phenylquinolin-2(1H)-one]: the values for the IC50 in experiment [1] and in experiment [2] were 3 µM and 1.75 µM, respectively.
For the molecule `O=C(/C=C/c1ccccc1)c1c(-c2ccncc2)c2cc(Cl)ccc2[nH]c1=O` [Compound 11, 6-chloro-3-cinnamoyl-4-(pyridin-4-yl)quinolin-2(1H)-one], the values for the IC50 in experiment [1] and in experiment [2] were 4.21 µM and 0.97 µM, respectively.
As to `Cc1ccccc1/C=C/C(=O)c1c(-c2cccnc2)c2cc(Cl)ccc2[nH]c1=O` [Compound 12, 6-chloro-4-(pyridin-3-yl)-3-(3-o-tolylacryloyl)quinolin-2(1H)-one], the IC50 was determined as 2.44 µM in experiment [1] and 1.04 µM in experiment [2].
For `Cc1ccccc1CNC(=O)c1c(-c2ccccc2)c2cc(Cl)ccc2[nH]c1=O` [Compound 13, 6-chloro-N-(2-methylbenzyl)-2-oxo-4-phenyl-1,2-dihydroquinoline-3-carboxamide], the values for the IC50 in experiment [1] and in experiment [2] were 3.1 µM and 4.73 µM, respectively.
Regarding `O=C(/C=C/c1ccccc1)c1c(-c2ccccc2)c2cc(Cl)cnc2[nH]c1=O` [Compound 14, 6-chloro-3-cinnamoyl-4-phenyl-1,8-naphthyridin-2(1H)-one], the IC50 was determined as 14.1 µM in experiment [1] and 0.71 µM in experiment [2].
On to `Cc1noc(C)c1-c1ccc2[nH]c(=O)c(C(=O)/C=C/c3ccccc3)c(-c3cccnc3)c2c1` [drawing 644], for which, at BRD4-BD1-BD2, the inhibition at 10 µM came out at 62%.
Take `Cc1ccc(-c2nnc(Sc3c(-c4ccccc4)c4cc(Cl)ccc4[nH]c3=O)n2/N=C/c2ccccc2)cc1` [drawing 646]: the inhibition at 10 µM on BRD4-BD1-BD2 was determined as 70%.
Consider `Cc1ccc(-c2nnc(Sc3c(-c4ccccc4)c4cc(Cl)ccc4[nH]c3=O)n2/N=C/c2ccccc2)cc1` [drawing 647], for which the “% inhibition at 10 μM” value on BRD4-BD1-BD2 worked out at 71%.
In the case of `COc1ccc(Cn2c(=O)c(-c3coc(C)n3)c(OS(=O)(=O)c3ccccc3)c3cc(Cl)ccc32)cc1` [drawing 651], the inhibition at 10 µM at BRD4-BD1-BD2 came out at 98%.
Regarding `COc1ccc(Cn2c(=O)c(-c3coc(C)n3)c(OS(=O)(=O)c3cccc4cccnc34)c3cc(Cl)ccc32)cc1` [drawing 652], the inhibition at 10 µM on BRD4-BD1-BD2 was 98%.
Same read-out and setting: with `COc1ccc(Cn2c(=O)c(-c3coc(C)n3)c(OS(=O)(=O)c3ccc(C)cc3)c3cc(Cl)ccc32)cc1` [drawing 653] the figure was 99%; with `COc1ccc(Cn2c(=O)c(-c3coc(C)n3)c(OS(=O)(=O)c3ccc(F)cc3)c3cc(Cl)ccc32)cc1` [drawing 654], 99%; with `COc1ccc(Cn2c(=O)c(-c3coc(C)n3)c(OS(=O)(=O)c3ccc(Cl)cc3)c3cc(Cl)ccc32)cc1` [drawing 655], 99%.
Same read-out and setting: the same measure for `COc1ccc(Cn2c(=O)c(-c3coc(C)n3)c(OS(=O)(=O)c3ccc4ccccc4c3)c3cc(Cl)ccc32)cc1` [drawing 656]: 99%; for `COc1ccc(Cn2c(=O)c(-c3coc(C)n3)c(OS(=O)(=O)c3ccc(-c4ccccc4)cc3)c3cc(Cl)ccc32)cc1` [drawing 657]: 99%.
